Source: patent US20220289727A1, “ENZYME INHIBITORS” (KALVISTA PHARMACEUTICALS LIMITED, priority 2019, published 2022)

What follows are compounds tested against T1, Human Factor XIIa (Homo sapiens, UniProt P00748) (assay: Determination of FXIIa inhibitory activity in vitro (fluorogenic substrate H-DPro-Phe-Arg-AFC)). Conditions: 25° C., residual enzyme activity (initial rate).
T1 construct: Human Factor XIIa (Enzyme Research Laboratories) was incubated; purchased Enzyme Research Laboratories
T1 sequence (P00748 373-615 limits assumed): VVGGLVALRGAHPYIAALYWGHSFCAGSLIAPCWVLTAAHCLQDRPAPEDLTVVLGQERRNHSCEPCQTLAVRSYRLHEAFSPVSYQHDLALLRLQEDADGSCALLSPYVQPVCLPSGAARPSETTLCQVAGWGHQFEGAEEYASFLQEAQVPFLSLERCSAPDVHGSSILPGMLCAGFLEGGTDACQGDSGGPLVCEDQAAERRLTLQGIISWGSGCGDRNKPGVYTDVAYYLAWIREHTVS
T1 sequence (P00748 20-372 partner limits assumed): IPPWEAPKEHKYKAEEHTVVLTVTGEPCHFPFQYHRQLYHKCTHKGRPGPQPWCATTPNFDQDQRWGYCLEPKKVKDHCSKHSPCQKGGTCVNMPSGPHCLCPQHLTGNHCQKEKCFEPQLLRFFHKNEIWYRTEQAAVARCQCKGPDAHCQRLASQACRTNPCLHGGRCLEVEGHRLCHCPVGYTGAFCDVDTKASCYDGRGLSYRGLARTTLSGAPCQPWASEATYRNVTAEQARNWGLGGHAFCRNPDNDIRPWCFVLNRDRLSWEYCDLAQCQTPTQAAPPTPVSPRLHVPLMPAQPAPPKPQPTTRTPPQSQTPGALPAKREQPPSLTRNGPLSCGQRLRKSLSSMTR
Assay type: biochemical

IC50 [µM] | Compound
10 to 40 | CN(C)Cc1sc(C(=O)NCc2ccc3c(N)nccc3c2)cc1Cl [Example 2.01]
10 to 40 | Nc1nccc2cc(CNC(=O)c3cc(Cl)c(CNCc4ccccc4)s3)ccc12 [Example 2.02]
10 to 40 | Nc1nccc2cc(CNC(=O)c3cc(Cl)c(CNc4ccccc4)s3)ccc12 [Example 2.03]
3 to 10 | Nc1nccc2cc(CNC(=O)c3cc(Cl)c(CNCCN4CCCCC4)s3)ccc12 [Example 2.04]
10 to 40 | COc1ccc(CNCc2sc(C(=O)NCc3ccc4c(N)nccc4c3)cc2Cl)cc1 [Example 2.05]
10 to 40 | COc1cccc(CNCc2sc(C(=O)NCc3ccc4c(N)nccc4c3)cc2Cl)c1 [Example 2.06]
10 to 40 | COc1ccccc1CNCc1sc(C(=O)NCc2ccc3c(N)nccc3c2)cc1Cl [Example 2.07]
10 to 40 | CN(C)c1ccccc1CNCc1sc(C(=O)NCc2ccc3c(N)nccc3c2)cc1Cl [Example 2.08]
10 to 40 | COCCNCc1sc(C(=O)NCc2ccc3c(N)nccc3c2)cc1Cl [Example 2.09]
10 to 40 | Nc1nccc2cc(CNC(=O)c3cc(Cl)c(CNCC4CCOCC4)s3)ccc12 [Example 2.10]
3 to 10 | CS(=O)(=O)c1ccc(CNCc2sc(C(=O)NCc3ccc4c(N)nccc4c3)cc2Cl)cc1 [Example 2.11, N-[(1-Aminoisoquinolin-6-yl)methyl]-4-chloro-5-({[(4-methanesulfonylphenyl)methyl]amino}methyl)thiophene-2-carboxamide]
3 to 10 | CS(=O)(=O)c1cccc(CNCc2sc(C(=O)NCc3ccc4c(N)nccc4c3)cc2Cl)c1 [Example 2.12]
10 to 40 | CS(=O)(=O)c1ccccc1CNCc1sc(C(=O)NCc2ccc3c(N)nccc3c2)cc1Cl [Example 2.13]
10 to 40 | N#Cc1cccc(CNCc2sc(C(=O)NCc3ccc4c(N)nccc4c3)cc2Cl)c1 [Example 2.15]
3 to 10 | CN(C)CCNCc1sc(C(=O)NCc2ccc3c(N)nccc3c2)cc1Cl [Example 2.16]
10 to 40 | Nc1nccc2cc(CNC(=O)c3cc(Cl)c(CNC4CCOCC4)s3)ccc12 [Example 2.17]
10 to 40 | Nc1nccc2cc(CNC(=O)c3cc(Cl)c(CNCCN4CCOCC4)s3)ccc12 [Example 2.18]
3 to 10 | CN1CCN(CCNCc2sc(C(=O)NCc3ccc4c(N)nccc4c3)cc2Cl)CC1 [Example 2.19]
3 to 10 | CN1CCC(CNCc2sc(C(=O)NCc3ccc4c(N)nccc4c3)cc2Cl)CC1 [Example 2.20]
10 to 40 | Nc1nccc2cc(CNC(=O)c3cc(Cl)c(CNCCOc4ccccc4)s3)ccc12 [Example 2.21]
10 to 40 | Nc1nccc2cc(CNC(=O)c3cc(Cl)c(CNCCCOc4ccccc4)s3)ccc12 [Example 2.22]
10 to 40 | Nc1nccc2cc(CNC(=O)c3cc(Cl)c(CNCCn4ccnc4)s3)ccc12 [Example 2.23]
10 to 40 | CC(=O)N1CCN(CCNCc2sc(C(=O)NCc3ccc4c(N)nccc4c3)cc2Cl)CC1 [Example 2.24]
10 to 40 | Nc1nccc2cc(CNC(=O)c3cc(Cl)c(CNCCN4CCS(=O)(=O)CC4)s3)ccc12 [Example 2.25]

IC50 [µM] | Compound
10 to 40 | CC(C)CCNCc1sc(C(=O)NCc2ccc3c(N)nccc3c2)cc1Cl [Example 2.26]
10 to 40 | CC(=O)NCCNCc1sc(C(=O)NCc2ccc3c(N)nccc3c2)cc1Cl [Example 2.27]
10 to 40 | Nc1nccc2cc(CNC(=O)c3cc(Cl)c(CNCc4ccc5c(c4)OCO5)s3)ccc12 [Example 2.28]
10 to 40 | CN1CCCc2cc(CNCc3sc(C(=O)NCc4ccc5c(N)nccc5c4)cc3Cl)ccc21 [Example 2.29]
10 to 40 | Nc1nccc2cc(CNC(=O)c3cc(Cl)c(CNCc4ccccn4)s3)ccc12 [Example 2.30]
3 to 10 | Nc1nccc2cc(CNC(=O)c3cc(Cl)c(CNCc4ccncc4)s3)ccc12 [Example 2.31]
3 to 10 | Nc1nccc2cc(CNC(=O)c3cc(Cl)c(CNCc4cccnc4)s3)ccc12 [Example 2.32]
3 to 10 | CN(C)CCCNCc1sc(C(=O)NCc2ccc3c(N)nccc3c2)cc1Cl [Example 2.33]
3 to 10 | CC(C)N1CCN(CCCNCc2sc(C(=O)NCc3ccc4c(N)nccc4c3)cc2Cl)CC1 [Example 2.34]
3 to 10 | CN(C)CCOc1ccc(CNCc2sc(C(=O)NCc3ccc4c(N)nccc4c3)cc2Cl)cc1 [Example 2.35]
3 to 10 | CN1CCN(CCCNCc2sc(C(=O)NCc3ccc4c(N)nccc4c3)cc2Cl)CC1 [Example 2.37]
10 to 40 | Nc1nccc2cc(CNC(=O)c3cc(Cl)c(CNCCN4CCCC4=O)s3)ccc12 [Example 2.38]
10 to 40 | CN1CCN(c2ccccc2CNCc2sc(C(=O)NCc3ccc4c(N)nccc4c3)cc2Cl)CC1 [Example 2.39]
3 to 10 | Nc1nccc2cc(CNC(=O)c3cc(Cl)c(CNCC4CCN(Cc5ccccc5)CC4)s3)ccc12 [Example 2.40]
10 to 40 | Nc1nccc2cc(CNC(=O)c3cc(Cl)c(CNCc4ccc(N5CCCCC5=O)cc4)s3)ccc12 [Example 2.41]
10 to 40 | Nc1nccc2cc(CNC(=O)c3cc(Cl)c(CNCc4cccc(N5CCCC5=O)c4)s3)ccc12 [Example 2.42]
10 to 40 | Nc1nccc2cc(CNC(=O)c3cc(Cl)c(CNCC(=O)NC4CCCC4)s3)ccc12 [Example 2.43]
3 to 10 | CN(Cc1sc(C(=O)NCc2ccc3c(N)nccc3c2)cc1Cl)CC1CCN(c2ccncc2)CC1 [Example 2.44]
3 to 10 | CN(C)CCCOc1cccc(CN(C)Cc2sc(C(=O)NCc3ccc4c(N)nccc4c3)cc2Cl)c1 [Example 2.45]
10 to 40 | CN(Cc1sc(C(=O)NCc2ccc3c(N)nccc3c2)cc1Cl)C1CCOCC1 [Example 2.46]
10 to 40 | CN1CCC(N(C)Cc2sc(C(=O)NCc3ccc4c(N)nccc4c3)cc2Cl)CC1 [Example 2.47]
10 to 40 | COc1ccc(NCc2sc(C(=O)NCc3ccc4c(N)nccc4c3)cc2Cl)cc1 [Example 2.48]
3 to 10 | CS(=O)(=O)c1ccc(NCc2sc(C(=O)NCc3ccc4c(N)nccc4c3)cc2Cl)cc1 [Example 2.49]
10 to 40 | N#Cc1ccc(CNCc2sc(C(=O)NCc3ccc4c(N)nccc4c3)cc2Cl)cc1 [Example 2.50]

IC50 [µM] | Compound
10 to 40 | CC(=O)NCCCNCc1sc(C(=O)NCc2ccc3c(N)nccc3c2)cc1Cl [Example 2.51]
3 to 10 | CN(C)CCCOc1cccc(CNCc2sc(C(=O)NCc3ccc4c(N)nccc4c3)cc2Cl)c1 [Example 2.52]
3 to 10 | CN1C(C)(C)CC(NCc2sc(C(=O)NCc3ccc4c(N)nccc4c3)cc2Cl)CC1(C)C [Example 2.53]
3 to 10 | Nc1nccc2cc(CNC(=O)c3cc(Cl)c(CNCCn4cncn4)s3)ccc12 [Example 2.54]
10 to 40 | CC(=O)Nc1cccc(NCc2sc(C(=O)NCc3ccc4c(N)nccc4c3)cc2Cl)c1 [Example 2.55]
3 to 10 | CC(C)N(CCNCc1sc(C(=O)NCc2ccc3c(N)nccc3c2)cc1Cl)C(C)C [Example 2.56]
3 to 10 | Nc1nccc2cc(CNC(=O)c3cc(Cl)c(CNCc4ccc(CN5CCCC5=O)cc4)s3)ccc12 [Example 2.57]
10 to 40 | Nc1nccc2cc(CNC(=O)c3cc(Cl)c(CN4CCN(Cc5cccnc5)CC4)s3)ccc12 [Example 5.01]
3 to 10 | CN1CCCN(Cc2sc(C(=O)NCc3ccc4c(N)nccc4c3)cc2Cl)CC1 [Example 5.02]
10 to 40 | Nc1nccc2cc(CNC(=O)c3cc(Cl)c(CN4CCOCC4)s3)ccc12 [Example 5.03]
10 to 40 | CN1CCN(Cc2sc(C(=O)NCc3ccc4c(N)nccc4c3)cc2Cl)CC1 [Example 5.04]
10 to 40 | CC(=O)N1CCN(Cc2sc(C(=O)NCc3ccc4c(N)nccc4c3)cc2Cl)CC1 [Example 5.05]
10 to 40 | CC(C)N1CCN(Cc2sc(C(=O)NCc3ccc4c(N)nccc4c3)cc2Cl)CC1 [Example 5.06]
10 to 40 | CS(=O)(=O)N1CCN(Cc2sc(C(=O)NCc3ccc4c(N)nccc4c3)cc2Cl)CC1 [Example 5.07]
10 to 40 | Nc1nccc2cc(CNC(=O)c3cc(Cl)c(CN4CCC(F)(F)C4)s3)ccc12 [Example 5.08]
10 to 40 | Nc1nccc2cc(CNC(=O)c3cc(Cl)c(CN4Cc5ccccc5C4)s3)ccc12 [Example 5.09]
3 to 10 | Nc1nccc2cc(CNC(=O)c3cc(Cl)c(CN4CCc5ncccc5C4)s3)ccc12 [Example 5.10]
10 to 40 | Nc1nccc2cc(CNC(=O)c3cc(Cl)c(CN4CC(O)C4)s3)ccc12 [Example 5.11]
10 to 40 | Nc1nccc2cc(CNC(=O)c3cc(Cl)c(CN4CCC(CCN5CCCC5=O)CC4)s3)ccc12 [Example 5.13]
10 to 40 | Nc1nccc2cc(CNC(=O)c3cc(Cl)c(CN4CCC5(CC4)OCCO5)s3)ccc12 [Example 5.14]
10 to 40 | Nc1nccc2cc(CNC(=O)c3cc(Cl)c(CN4CCN(c5cnccn5)CC4)s3)ccc12 [Example 5.15]
10 to 40 | CS(=O)(=O)c1ccc(OCc2sc(C(=O)NCc3ccc4c(N)nccc4c3)cc2Cl)cc1 [Example 7.01]
10 to 40 | Cn1cnc2cc(OCc3sc(C(=O)NCc4ccc5c(N)nccc5c4)cc3Cl)ccc21 [Example 7.02]
